Laboratory results: patent publication US20240307409A1, “ARGININE METHYLTRANSFERASE INHIBITOR AND USE THEREOF” (Cytosinlab Therapeutics Co., Ltd., priority 2021, published 2024)

Key:
[1] = target: PRMT1 (Homo sapiens, UniProt Q99873); test: PRMT1 enzyme activity test; format: biochemical; settings: 0.5 nM PRMT1, 3H-SAM, peptide
How it was run: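 Radiometric methylation assay: 0.5 nM PRMT1 preincubated 15 min at room temperature with compound (10-point 3-fold series, 1% DMSO) in pH 8.0 Tris buffer with Tween-20 and DTT. 0.25 uM ³H-SAM and 0.1 uM biotinylated peptide then reacted 120 min. Product captured on streptavidin FlashPlate and counted; IC50 from four-parameter fit of % inhibition.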

[2] = target: PRMT5 (Homo sapiens, UniProt O14744); test: PRMT panel selectivity test, PRMT5; format: biochemical
Protocol: [The procedure below names another target; the source says it served here with some conditions changed.] PRMT1 enzyme activity test were performed in a buffer prepared on the same day 5 consisting of 10 mMTirs-HCl (pH=8.0), 0.01% Tween-20 and 1 mM DTT. The compounds were prepared to the highest inhibitor concentration ultimately required in the 100× reaction with 100% DMSO and then transferred to one well of a 384-well Echo plate (Echo-eligible 384-well polypropylene microplates 2.0, transparent, flat-bottomed) and sequentially diluted in the next well with a 3-fold dilution of 100% DMSO, and so on, with a total of 10 concentrations based on Precision. 100% DMSO was added to two empty wells to serve as control well without compound and control well without enzyme in the same 384-well Echo plate. 250 nL of compound was transferred from each well of the 384-well Echo plate to a 384-well assay plate (384-well polypropylene storage microplate) via the Echo 550 liquid processor. For wells with compounds and control well without compound, a mixture (15 uL) containing PRMT1 enzyme was added to the 384-well assay plate. For control wells without enzyme, the mixture containing the assay buffer (15 uL) was added instead. The compounds were allowed to incubate with PRMT1 for 15 minutes at room temperature, and then a mixture containing ^3H-SAM and peptide (10 uL) was added to start the reaction (final volume=25 uL). […] After 120 min of incubation, the assay was terminated by the addition of non-radiolabeled SAM (5 uL) to a final concentration of 125 uM, which diluted 3H-SAM to a level at which its incorporation into the peptide substrate was no longer detected. […] Plates were read on a microplate counter (MicroBeta2) to measure the amount of ^3H-labeled peptide bound to the surface of the detection plate, measured in counts per minute (cpm).
The raw data were copied from the Reader and the inhibition values were calculated in Excel by Equation (1), Equation (1): Inh %=(CPMmax−CPMcmpd)/(CPMmax−CPMmin)*100, wherein the Max signal was obtained from the enzyme-substrate interaction and the Min signal was obtained from the substrate. […]

[3] = tested on: MMA in RKO cells; test: RKO In Cell Western assay (MMA primary antibody); format: cell-based; settings: Homo sapiens, 72 hours, read-out: RKO ICW_EC30
How it was run: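 After 72 h compound exposure at 37 °C, RKO cells (2,000/well) were fixed, permeabilized and probed with MMA primary antibody plus HRP secondary, TMB read at OD450. Signal normalized to Janus green OD595; activation % derived from OD450/OD595 relative to DMSO and 10 μM positive controls, 8-point threefold series from 5 μM.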

Chain of PRMT1 (Q99873 whole entry): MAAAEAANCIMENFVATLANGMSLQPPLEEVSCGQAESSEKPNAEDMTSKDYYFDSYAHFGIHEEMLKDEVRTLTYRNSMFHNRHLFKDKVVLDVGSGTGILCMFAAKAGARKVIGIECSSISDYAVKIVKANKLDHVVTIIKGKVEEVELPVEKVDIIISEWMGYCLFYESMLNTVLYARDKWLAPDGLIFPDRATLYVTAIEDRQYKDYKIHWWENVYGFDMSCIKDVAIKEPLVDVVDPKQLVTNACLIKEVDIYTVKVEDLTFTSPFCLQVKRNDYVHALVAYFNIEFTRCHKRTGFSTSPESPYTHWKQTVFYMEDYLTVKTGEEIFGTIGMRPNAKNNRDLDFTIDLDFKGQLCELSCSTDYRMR
Chain of PRMT5 (O14744 whole entry, species assumed): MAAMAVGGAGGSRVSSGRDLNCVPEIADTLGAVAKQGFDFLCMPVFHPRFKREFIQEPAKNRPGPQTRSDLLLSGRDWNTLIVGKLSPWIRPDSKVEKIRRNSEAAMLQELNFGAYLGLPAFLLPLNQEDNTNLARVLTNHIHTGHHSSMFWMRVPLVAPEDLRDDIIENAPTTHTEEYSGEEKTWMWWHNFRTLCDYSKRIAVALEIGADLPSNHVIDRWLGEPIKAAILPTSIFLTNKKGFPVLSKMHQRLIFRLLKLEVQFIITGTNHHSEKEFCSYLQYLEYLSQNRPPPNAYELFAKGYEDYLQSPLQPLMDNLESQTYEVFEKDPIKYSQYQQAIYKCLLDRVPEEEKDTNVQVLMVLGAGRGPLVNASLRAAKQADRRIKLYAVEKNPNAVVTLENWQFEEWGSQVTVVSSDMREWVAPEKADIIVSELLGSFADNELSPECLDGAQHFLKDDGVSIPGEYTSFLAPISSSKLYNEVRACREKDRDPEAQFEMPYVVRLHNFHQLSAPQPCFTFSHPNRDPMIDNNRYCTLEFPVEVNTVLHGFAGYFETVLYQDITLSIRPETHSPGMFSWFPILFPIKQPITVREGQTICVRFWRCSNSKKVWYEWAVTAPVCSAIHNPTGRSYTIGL
Chain of PRMT5 (Q9BQA1 whole entry partner, species assumed): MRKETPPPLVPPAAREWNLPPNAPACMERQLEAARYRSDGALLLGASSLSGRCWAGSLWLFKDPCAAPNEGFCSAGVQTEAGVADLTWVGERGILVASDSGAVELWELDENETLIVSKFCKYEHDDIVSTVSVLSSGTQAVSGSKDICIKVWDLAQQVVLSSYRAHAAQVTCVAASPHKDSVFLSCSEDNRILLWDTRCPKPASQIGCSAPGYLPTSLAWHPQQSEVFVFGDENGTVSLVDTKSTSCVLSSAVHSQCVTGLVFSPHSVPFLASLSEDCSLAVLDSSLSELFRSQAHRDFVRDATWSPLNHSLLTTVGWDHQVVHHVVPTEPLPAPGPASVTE

| IC50 [1] [nM] | IC50 [2] [nM] | Structure (SMILES) | EC30 [3] [nM] |
| --- | --- | --- | --- |
| < 50 | ≥ 10000 | CNCCN(C)Cc1ccccc1C1CCN(c2ccccc2)CC1 [P023] | < 250 |
| < 50 | ≥ 10000 | CNCCN(C)Cc1ncccc1N1CCc2ccccc2CC1 [P118] | < 250 |
| < 50 | ≥ 10000 | CCOCC1(COCC)CCC(c2cccnc2CN(C)CCNC)CC1 [P207] | < 250 |
